Data: US6610677B2, “Pyrazole compounds useful as protein kinase inhibitors” (Vertex Pharmaceuticals Incorporated, priority 2000, dated 2003)

Key:
Aurora-2 = biological target: T1, Aurora-2 (Homo sapiens, UniProt O14965); assay: Ki determination for the inhibition of Aurora-2 (coupled enzyme assay); type: biochemical; conditions: 70 nM Aurora-2, peptide LRRASLG, 30° C
T1 sequence (O14965 1-403): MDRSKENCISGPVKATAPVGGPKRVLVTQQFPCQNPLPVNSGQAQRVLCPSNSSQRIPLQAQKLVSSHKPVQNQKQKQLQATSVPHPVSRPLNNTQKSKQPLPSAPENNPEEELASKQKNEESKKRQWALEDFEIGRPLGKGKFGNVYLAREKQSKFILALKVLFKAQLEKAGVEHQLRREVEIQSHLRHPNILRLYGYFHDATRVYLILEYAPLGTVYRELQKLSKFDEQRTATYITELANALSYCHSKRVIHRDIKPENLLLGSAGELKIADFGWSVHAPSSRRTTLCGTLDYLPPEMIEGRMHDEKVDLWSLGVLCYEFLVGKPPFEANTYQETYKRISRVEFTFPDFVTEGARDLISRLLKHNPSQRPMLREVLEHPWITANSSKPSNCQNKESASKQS
Protocol: Compounds were screened in the following manner for their ability to inhibit Aurora-2 using a standard coupled enzyme assay (Fox et al (1998) Protein Sci 7, 2249).
To an assay stock buffer solution containing 0.1M HEPES 7.5, 10 mM MgCl2, 1 mM DTT, 25 mM NaCl, 2.5 mM phosphoenolpyruvate, […], 30 mg/ml pyruvate kinase, 10 mg/ml lactate dehydrogenase, […], and 800 μM peptide (LRRASLG, American Peptide, Sunnyvale, Calif.) was added a DMSO solution of a compound of the present invention to a final concentration of 30 μM. The resulting mixture was incubated at 30° C. for 10 min. The reaction was initiated by the addition of 10 μL of Aurora-2 stock solution to give a final concentration of 70 nM in the assay. The rates of reaction were obtained by monitoring absorbance at 340 nm over a 5 minute read time at 30° C. using a BioRad Ultramark plate reader (Hercules, Calif.). The Ki values were determined from the rate data as a function of inhibitor concentration.

GSK-3β (AA 1-420) = biological target: T2, GSK-3β (AA 1-420) (Homo sapiens, UniProt P49841); assay: Ki determination for the inhibition of GSK-3 (coupled enzyme system); type: biochemical; conditions: 20 μM ATP, 300 μM peptide, 20 nM GSK-3β, 30° C
T2 construct: GSK-3β (AA 1-420)
T2 sequence (P49841 whole entry, the tested form may be a part): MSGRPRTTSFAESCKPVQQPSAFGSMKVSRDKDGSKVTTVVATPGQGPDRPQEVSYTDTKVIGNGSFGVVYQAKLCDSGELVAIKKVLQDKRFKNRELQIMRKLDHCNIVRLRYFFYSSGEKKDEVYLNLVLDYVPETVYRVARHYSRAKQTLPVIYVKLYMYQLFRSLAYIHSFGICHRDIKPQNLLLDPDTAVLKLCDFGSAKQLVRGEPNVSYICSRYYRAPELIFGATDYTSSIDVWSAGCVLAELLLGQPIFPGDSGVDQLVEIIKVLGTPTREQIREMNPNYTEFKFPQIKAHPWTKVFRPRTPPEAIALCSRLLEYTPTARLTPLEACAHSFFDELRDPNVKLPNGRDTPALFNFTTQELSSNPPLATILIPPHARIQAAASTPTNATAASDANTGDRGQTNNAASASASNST
How it was run: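 Pyruvate kinase/lactate dehydrogenase-coupled NADH assay with 20 nM GSK-3β (AA 1-420), 20 μM ATP, 300 μM phosphopeptide HSSPHQS(PO3H2)EDEEE in HEPES pH 7.5, 1.5% DMSO, 30 °C. Compound (12 points, 0.002–30 μM) preincubated 10 min before ATP start; Ki derived from 10-min rates versus inhibitor concentration.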

SMILES | Ki (Aurora-2) [nM] | Ki (GSK-3β (AA 1-420)) [nM]
COc1cccc2c(Nc3n[nH]c4ccc(F)cc34)nc(-c3ccccc3C(F)(F)F)nc12 [II-91, (5-Fluoro-1H-indazol-3-yl)-[8-methoxy-2-(2-trifluoromethyl-phenyl)-quinazolin-4-yl]-amine] | 1000 to 20000 | < 100
COc1cccc2c(Nc3n[nH]c4c(F)cc(F)cc34)nc(-c3ccccc3C(F)(F)F)nc12 [II-93, (5,7-Difluoro-1H-indazol-3-yl)-[8-methoxy-2-(2-trifluoromethyl-phenyl)-quinazolin-4-yl]-amine] | 100 to 1000 | < 100
Fc1cc(F)c2[nH]nc(Nc3nc(-c4cccnc4Cl)nc4ccccc34)c2c1 [II-94, [2-(2-Chloro-pyridin-3-yl)-quinazolin-4-yl]-(5,7-Difluoro-1H-indazol-3-yl)-amine] | 100 to 1000 | < 100
Nc1ccc(-c2nc(Nc3n[nH]c4c(F)cc(F)cc34)c3ccccc3n2)c(Cl)c1 [II-96, [2-(4-Amino-2-chloro-phenyl)-quinazolin-4-yl]-(5,7-Difluoro-1H-indazol-3-yl)-amine] | 1000 to 20000 | < 100
FC(F)(F)c1ccccc1-c1nc(Nc2n[nH]c3ncccc23)c2ccccc2n1 [II-99, (1H-Pyrazolo[3,4-b]pyridin-3-yl)-[2-(2-trifluoromethyl-phenyl)-quinazolin-4-yl]-amine] | 100 to 1000 | < 100
Cc1cc(Nc2cc(-c3ccccc3)n[nH]2)nc(-c2ccccc2OC(F)(F)F)n1 [II-103, [6-Methyl-2-(2-trifluoromethoxy-phenyl)-pyrimidin-4-yl]-(5-phenyl-2H-pyrazol-3-yl)-amine] | 1000 to 20000 | 100 to 1000
Cc1cc(Nc2cc(-c3ccco3)n[nH]2)nc(-c2ccccc2OC(F)(F)F)n1 [II-104, (5-Furan-2-yl-2H-pyrazol-3-yl)-[6-methyl-2-(2-trifluoromethoxy-phenyl)-pyrimidin-4-yl]-amine] | 1000 to 20000 | 100 to 1000
CCc1cc(Nc2cc(C)n[nH]2)nc(-c2ccccc2OC(F)(F)F)n1 [II-105, [6-Ethyl-2-(2-trifluoromethoxy-phenyl)-pyrimidin-4-yl]-(5-methyl-2H-pyrazol-3-yl)-amine] | 100 to 1000 | < 100
Fc1ccc2[nH]nc(Nc3nc(-c4ccccc4C(F)(F)F)nc4c3CCC4)c2c1 [II-107, (5-Fluoro-1H-indazol-3-yl)-[2-(2-trifluoromethyl-phenyl)-6,7-dihydro-5H-cyclopentapyrimidin-4-yl]-amine] | 1000 to 20000 | < 100
c1ccc(-c2nc(Nc3n[nH]c4ccccc34)c3ccccc3n2)cc1 [III-1, (1H-Indazol-3-yl)-(2-phenyl-quinazolin-4-yl)-amine] | 100 to 1000 | 100 to 1000
Cc1cc(Nc2nc(-c3ccccc3)nc3c2CCCC3)n[nH]1 [III-7, (5-Methyl-2H-pyrazol-3-yl)-(2-phenyl-5,6,7,8-tetrahydroquinazolin-4-yl)-amine] | < 100 | < 100
Cc1cc(Nc2nc(-c3ccncc3)nc3ccccc23)n[nH]1 [III-9, (5-Methyl-2H-pyrazol-3-yl)-(2-pyridin-4-yl-quinazolin-4-yl)-amine] | < 100 | < 100
Cc1cc(Nc2nc(-c3ccncc3)nc3cc(Cl)ccc23)[nH]n1 [III-28, (7-Chloro-2-pyridin-4-yl-quinazolin-4-yl)-(5-methyl-2H-pyrazol-3-yl)-amine] | 100 to 1000 | 100 to 1000
Cc1cc(Nc2nc(C3CCCCC3)nc3ccccc23)[nH]n1 [III-30, (2-Cyclohexyl-quinazolin-4-yl)-(5-methyl-2H-pyrazol-3-yl)-amine] | < 100 | < 100
Clc1ccc(-c2nc(Nc3cc(C4CC4)n[nH]3)c3ccccc3n2)cc1Cl [III-46, (5-Cyclopropyl-2H-pyrazol-3-yl)-[2-(3,4-dichlorophenyl)-quinazolin-4-yl]-amine] | < 100 | < 100
Cc1cccc(-c2nc(Nc3cc(C)n[nH]3)c3ccccc3n2)c1 [III-50, [2-(3-Methylphenyl)-quinazolin-4-yl]-(5-methyl-2H-pyrazol-3-yl)-amine] | < 100 | 100 to 1000
Cc1cc(Nc2nc(-c3cc(F)cc(F)c3)nc3ccccc23)[nH]n1 [III-51, [2-(3,5-Difluorophenyl)-quinazolin-4-yl]-(5-methyl-2H-pyrazol-3-yl)-amine] | < 100 | < 100

SMILES | Ki (Aurora-2) [nM] | Ki (GSK-3β (AA 1-420)) [nM]
Cc1cc(Nc2nc(-c3ccc(F)c(Cl)c3)nc3ccccc23)[nH]n1 [III-52, [2-(3-Chloro-4-fluorophenyl)-quinazolin-4-yl]-(5-methyl-2H-pyrazol-3-yl)-amine] | < 100 | < 100
Cc1cc(Nc2nc(-c3cccc(C(F)(F)F)c3)nc3ccccc23)[nH]n1 [III-53, (5-Methyl-2H-pyrazol-3-yl)-[2-(3-trifluoromethylphenyl)-quinazolin-4-yl]-amine] | < 100 | < 100
Cc1cc(Nc2nc(-c3cccc(C#N)c3)nc3ccccc23)[nH]n1 [III-54, [2-(3-Cyanophenyl)-quinazolin-4-yl]-(5-methyl-2H-pyrazol-3-yl)-amine] | < 100 | < 100
Cc1cc(Nc2nc(-c3cccc(C(C)C)c3)nc3ccccc23)[nH]n1 [III-55, [2-(3-Isopropylphenyl)-quinazolin-4-yl]-(5-methyl-2H-pyrazol-3-yl)-amine] | < 100 | < 100
Cc1cc(Nc2nc(-c3cccnc3)nc3ccccc23)[nH]n1 [III-56, (5-Methyl-2H-pyrazol-3-yl)-(2-pyridin-3-yl-quinazolin-4-yl)-amine] | < 100 | < 100
CC(=O)c1cccc(-c2nc(Nc3cc(C)n[nH]3)c3ccccc3n2)c1 [III-57, [2-(3-Acetylphenyl)-quinazolin-4-yl]-(5-methyl-2H-pyrazol-3-yl)-amine] | < 100 | < 100
Cc1cc(Nc2nc(-c3cc(C(F)(F)F)cc(C(F)(F)F)c3)nc3ccccc23)[nH]n1 [III-58, [2-(3,5-Ditrifluoromethylphenyl)-quinazolin-4-yl]-(5-methyl-2H-pyrazol-3-yl)-amine] | 100 to 1000 | < 100
Cc1cc(Nc2nc(-c3cccc(CO)c3)nc3ccccc23)[nH]n1 [III-59, [2-(3-Hydroxymethylphenyl)-quinazolin-4-yl]-(5-methyl-2H-pyrazol-3-yl)-amine] | < 100 | < 100
C=CCNC(=O)c1cc(Nc2nc(-c3ccccc3)nc3ccccc23)[nH]n1 [III-82, (5-Allylcarbamoyl-2H-pyrazol-3-yl)-(2-phenyl-quinazolin-4-yl)-amine] | 1000 to 20000 | 100 to 1000
OCc1cc(Nc2nc(N3CCCCC3)nc3ccccc23)[nH]n1 [III-124, (5-Hydroxymethyl-2H-pyrazol-3-yl)-[2-(piperidin-1-yl)-quinazolin-4-yl]-amine] | 100 to 1000 | 100 to 1000
Fc1cc(F)c2n[nH]c(Nc3nc(-c4ccccc4)nc4c3CCCC4)c2c1 [III-127, (5,7-Difluoro-1H-indazol-3-yl)-(2-phenyl-5,6,7,8-tetrahydroquinazolin-4-yl)-amine] | 1000 to 20000 | < 100
Fc1cccc2c(Nc3nc(-c4ccccc4)nc4ccccc34)[nH]nc12 [III-129, (7-Fluoro-1H-indazol-3-yl)-(2-phenyl-quinazolin-4-yl)-amine] | 1000 to 20000 | 100 to 1000
Fc1ccc2n[nH]c(Nc3nc(-c4ccccc4)nc4ccccc34)c2c1 [III-130, (5-Fluoro-1H-indazol-3-yl)-(2-phenyl-quinazolin-4-yl)-amine] | 100 to 1000 | < 100
FC(F)(F)c1cccc(-c2nc(Nc3[nH]nc4ccccc34)c3ccccc3n2)c1 [III-132, (1H-Indazol-3-yl)-[2-(3-trifluoromethyl-phenyl)-quinazolin-4-yl]-amine] | 1000 to 20000 | 100 to 1000
c1ccc2c(Nc3n[nH]c4ccccc34)nc(-n3ccnc3)nc2c1 [III-141, (2-imidazol-1-yl-quinazolin-4-yl)-(1H-indazol-3-yl)-amine] | 1000 to 20000 | < 100
CC1CCN(c2nc(Nc3cc(C4CC4)n[nH]3)c3nccc-3[nH]2)CC1 [IV-34, (5-Cyclopropyl-2H-pyrazol-3-yl)-[2-(4-methylpiperidin-1-yl)-pyrrolo[3,2-d]pyrimidin-4-yl]-amine] | < 100 | < 100
FC(F)(F)c1ccccc1-c1nc(Nc2nc[nH]n2)c2ccccc2n1 [IX-47, (2H-[1,2,4]-Triazol-3-yl)-[2-(2-trifluoromethylphenyl)-quinazolin-4-yl]-amine] | 1000 to 20000 | < 100
